{"source": "paper PMC12305721", "about": "(International Journal of Pharmaceutics: X, 2025)", "origin": "cited, not measured here", "set-up": "method as in Song et al., 2016", "details": "reduced from −43.19 °C; ref Song et al., 2016", "data": [{"smiles": "CCCCCCCCCCCCN1CCCCCC1=O", "note": "[Azone]", "values": [{"measurement": "Tg of PSAs after incorporation of Azone", "result": "−52.92", "unit": "°C"}]}]}
